Reference: ChEMBL document CHEMBL3351499, “'Click' glycosylation of peptides through cysteine propargylation and CuAAC” (Bioorg Med Chem, 2014)
Residues, ends and D or L forms follow the SMILES beside them. *: point of attachment. X3 = OC[C@H]1O[C@H](OCCn2cc(C*)nn2)[C@@H](O)[C@@H](O)[C@@H]1O; X4 = OC[C@H]1O[C@@H](OCCn2cc(C*)nn2)[C@H](O)[C@@H](O)[C@@H]1O; X6 = O[C@@H]1[C@@H](O)[C@@H](OCCn2cc(C*)nn2)O[C@H](CF)[C@H]1O; X1 = OC[C@H]1O[C@@H](OCCn2cc(C*)nn2)[C@H](O)[C@@H](O)[C@H]1O; X2 = O[C@@H]1[C@@H](O)[C@H](OCCn2cc(C*)nn2)O[C@H](CF)[C@H]1O; X5 = O[C@@H]1[C@H](O)[C@@H](OCCn2cc(C*)nn2)O[C@H](CF)[C@H]1O

Test: Antiplatelet activity in citrated human platelet rich plasma assessed as inhibition of ADP-induced platelet aggregation incubated for 10 mins at 37 degC by light transmission aggregometry
Assay type: functional

Row | SMILES | IC50 [µM]
1 | NC(N)=NCCC[C@H](N)C(=O)NCC(=O)N[C@@H](CC(=O)O)C(=O)N[C@@H](CS)C(=O)O (H-RGDC-OH) | 322
2 | CC(C)[C@@H]1NC(=O)[C@H](Cc2ccccc2)NC(=O)[C@H](CC(=O)O)NC(=O)CNC(=O)[C@H](CCCNC(=N)N)NC1=O | 72
3 | N=C(N)NCCC[C@@H]1NC(=O)[C@H](CSCc2cn(CCO[C@@H]3O[C@H](CF)[C@@H](O)[C@H](O)[C@H]3O)nn2)NC(=O)[C@H](Cc2ccccc2)NC(=O)[C@H](CC(=O)O)NC(=O)CNC1=O | 148
4 | N=C(N)NCCC[C@H](N)C(=O)NCC(=O)N[C@@H](CC(=O)O)C(=O)N[C@@H](CSCc1cn(C[C@H]2O[C@H](O[C@H]3O[C@H](Cn4cc(CSC[C@H](NC(=O)[C@H](CC(=O)O)NC(=O)CNC(=O)[C@@H](N)CCCNC(=N)N)C(=O)O)nn4)[C@@H](O)[C@H](O)[C@H]3O)[C@@H](O)[C@@H](O)[C@@H]2O)nn1)C(=O)O | 76.5
5 | NC(N)=NCCC[C@H](N)C(=O)NCC(=O)N[C@@H](CC(=O)O)C(=O)O | 319

Now those with a lower IC50, led by results:

Row | IC50 [µM] | SMILES
6 | 44 | N=C(N)NCCC[C@H](N)C(=O)NCC(=O)N[C@@H](CC(=O)O)C(=O)N[C@@H](CSCc1cn(CCO[C@@H]2O[C@H](CO)[C@@H](O)[C@H](O)[C@H]2O)nn1)C(=O)O (H-RGDC(X4)-OH)
7 | 65 | N=C(N)NCCC[C@@H]1NC(=O)[C@H](CS)NC(=O)[C@H](Cc2ccccc2)NC(=O)[C@H](CC(=O)O)NC(=O)CNC1=O (cyclo(RGDFC))
8 | 66 | N=C(N)NCCC[C@H](N)C(=O)NCC(=O)N[C@@H](CC(=O)O)C(=O)N[C@@H](CSCc1cn(CCO[C@@H]2O[C@H](CF)[C@@H](O)[C@H](O)[C@H]2O)nn1)C(=O)O (H-RGDC(X2)-OH)
9 | 26 | N=C(N)NCCC[C@H](N)C(=O)NCC(=O)N[C@@H](CC(=O)O)C(=O)N[C@@H](CSCc1cn(CCO[C@H]2O[C@H](CF)[C@@H](O)[C@H](O)[C@H]2O)nn1)C(=O)O (H-RGDC(X6)-OH)
10 | 47.6 | N=C(N)NCCC[C@H](N)C(=O)NCC(=O)N[C@@H](CC(=O)O)C(=O)N[C@@H](CSCc1cn(CCO[C@H]2O[C@H](CO)[C@@H](O)[C@H](O)[C@@H]2O)nn1)C(=O)O (H-RGDC(X3)-OH)
11 | 23 | N=C(N)NCCC[C@H](N)C(=O)NCC(=O)N[C@@H](CC(=O)O)C(=O)N[C@@H](CSCc1cn(CCO[C@@H]2O[C@H](CO)[C@H](O)[C@H](O)[C@H]2O)nn1)C(=O)O (H-RGDC(X1)-OH)
12 | 23.5 | N=C(N)NCCC[C@H](N)C(=O)NCC(=O)N[C@@H](CC(=O)O)C(=O)N[C@@H](CSCc1cn(CCO[C@H]2O[C@H](CF)[C@@H](O)[C@H](O)[C@@H]2O)nn1)C(=O)O (H-RGDC(X5)-OH)
